{"source": "patent US20240197733A1", "about": "“A GABA RECEPTOR MODULATOR FOR USE IN THE TREATMENT OF PAIN” (SANIONA A/S, priority 2021, published 2024)", "key": {"[1]": {"tested_on": "electrocutaneous stimulation-induced facial pain rodent model", "assay": "ES-induced facial pain model, mechanical allodynia (Von Frey), prophylactic and acute treatment", "type": "in vivo, Sprague-Dawley rats", "experimental": "Mechanical pain thresholds were assessed by measuring each rat's facial withdrawal threshold (g) in response to von Frey monofilaments (BioSeb). Starting monofilament: 3.84 (0.6 g), 50% facial withdrawal threshold was interpolated using the up-down method (Chaplan S R et al., 1994). Cutoff monofilament was 4.56 (4 g). Unless stated otherwise, the same materials, methods, and provisions of Example 1 were applied to Example 2. The required quantity of the compound is weighed and dissolved in 100% DMSO in a volume amounting to 5% of the total volume while placed on a stirrer. The weight of the compounds refers to the free base weights. Once the solution becomes clear/transparent, the remaining volume of the vehicle is added (30% HPBCD prepared in MQ water) to final concentrations of 0.03, 0.1, and 0.3 mg/ml for Compound 1. The solutions are kept on a stirrer before- and during administration of the compounds to the animals. The experimenter assessing the behavioral responses to drug administration is blinded to the drug treatment to the animals. Each treatment group is coded according the scheme below: • A. Vehicle (5% DMSO+30% HPBCD): 10 ml/kg • B. Compound 1: 0.3 mg/kg • C. Compound 1: 1 mg/kg • D. Compound 1: 3 mg/kg • F. Compound 1: 3 mg/kg—acute Second baseline measurement was carried out similarly to day 1, For each animal, the average of the two baseline nociceptive measurements was calculated within each pain modality (mechanical, heat- and cold pain), and used as baseline (“Baseline” point on figures). Then all rats in the above respective group (A-D) are given treated as mentioned. Group F received vehicle treatment. Treatment is continued once daily to each group same as Day 2 All rats were treated with respective treatment as per day 3-7. After 1 hr of treatment, each rat was subjected to 1 hr of electrocutaneous stimulation at depilated cheek (0.4 mA intensity, 10 ms duration, 1 s inter-pulse interval). Similar to day 1- and 2, all rats were acclimatized to test equipment followed by measurements of ES-induced facial mechanical- heat- and cold allodynia (“0” time point on figures). After measurement of hypersensitivity threshold, rats from group A-D received the vehicle and three doses of Compound 1 as mentioned above while group F received single acute dose of 3 mg/kg of Compound 1. Treatment effects on pain thresholds were evaluated 2- and 4 hours after administration by assessing mechanical- (Von Frey) and thermal (heat and cold) withdrawal threshold."}, "[2]": {"target": "GABAA receptors containing the a3 subunit (Homo sapiens, UniProt P18507+P34903)", "sequence (P34903 29-492)": "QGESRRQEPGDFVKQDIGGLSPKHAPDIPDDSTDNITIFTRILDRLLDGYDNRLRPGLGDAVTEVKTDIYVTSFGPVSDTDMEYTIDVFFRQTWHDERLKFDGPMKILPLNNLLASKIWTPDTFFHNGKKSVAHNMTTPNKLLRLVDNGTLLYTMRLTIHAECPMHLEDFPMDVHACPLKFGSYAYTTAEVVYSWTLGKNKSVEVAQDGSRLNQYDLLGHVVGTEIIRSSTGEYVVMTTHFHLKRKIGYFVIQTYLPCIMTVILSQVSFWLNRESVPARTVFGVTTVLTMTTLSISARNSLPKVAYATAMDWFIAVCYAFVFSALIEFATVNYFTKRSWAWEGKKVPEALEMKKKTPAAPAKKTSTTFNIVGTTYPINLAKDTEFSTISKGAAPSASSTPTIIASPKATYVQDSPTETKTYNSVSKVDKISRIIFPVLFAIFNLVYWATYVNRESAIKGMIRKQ", "sequence (P47870 25-512 partner limits assumed)": "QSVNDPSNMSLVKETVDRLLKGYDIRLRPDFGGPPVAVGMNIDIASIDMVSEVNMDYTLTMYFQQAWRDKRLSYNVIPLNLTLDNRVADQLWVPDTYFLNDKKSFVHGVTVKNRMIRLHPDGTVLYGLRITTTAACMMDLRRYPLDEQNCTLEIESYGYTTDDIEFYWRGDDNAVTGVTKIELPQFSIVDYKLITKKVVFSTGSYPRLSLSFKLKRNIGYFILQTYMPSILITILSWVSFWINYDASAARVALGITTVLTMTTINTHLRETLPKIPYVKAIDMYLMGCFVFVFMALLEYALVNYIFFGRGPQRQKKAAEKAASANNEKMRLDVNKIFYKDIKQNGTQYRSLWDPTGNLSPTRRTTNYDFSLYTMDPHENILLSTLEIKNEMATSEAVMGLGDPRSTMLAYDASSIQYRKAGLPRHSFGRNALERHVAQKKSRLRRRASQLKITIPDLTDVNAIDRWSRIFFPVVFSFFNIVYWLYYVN", "sequence (P18507 40-475)": "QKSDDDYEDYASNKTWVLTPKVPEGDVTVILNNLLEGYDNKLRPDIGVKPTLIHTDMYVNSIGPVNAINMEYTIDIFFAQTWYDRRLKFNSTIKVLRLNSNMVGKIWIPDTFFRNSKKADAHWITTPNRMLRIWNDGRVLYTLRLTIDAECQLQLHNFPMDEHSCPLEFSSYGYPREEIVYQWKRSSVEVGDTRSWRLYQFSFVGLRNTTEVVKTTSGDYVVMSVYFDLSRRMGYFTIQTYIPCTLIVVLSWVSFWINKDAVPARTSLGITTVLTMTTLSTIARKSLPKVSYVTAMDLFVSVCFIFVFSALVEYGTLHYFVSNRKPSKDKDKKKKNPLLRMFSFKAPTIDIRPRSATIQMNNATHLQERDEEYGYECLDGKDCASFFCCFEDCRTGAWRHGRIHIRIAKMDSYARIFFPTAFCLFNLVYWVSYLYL", "settings": "cited from earlier work"}}}
{"smiles": "COc1ncc(-c2cccc(-n3cnc4cc(C(C)(C)O)cnc43)c2)c(OC)n1", "note": "[Compound 1, 2-(3-(3-(2,4-dimethoxypyrimidin-5-yl)phenyl)-3H-imidazo[4,5-b]pyridin-6-yl)propan-2-ol]", "values": [{"measurement": "effect size on mechanical allodynia, acute treatment compared to prophylactic treated animals", "setting": "[1]; acute 3 mg/kg po", "result": "smaller"}, {"measurement": "effect on established mechanical allodynia vs vehicle", "setting": "[1]; acute 3 mg/kg po on day 9, p<0.01 post 2 hrs, p<0.001 post 4 hrs", "result": "reversed the mechanical allodynia"}, {"measurement": "effect on established mechanical allodynia vs vehicle", "setting": "[1]; prophylactic 0.3 mg/kg po plus additional dose on day 9, p>0.05 post 2 hrs, p<0.01 post 4 hrs", "result": "reversed the mechanical allodynia dose dependently"}, {"measurement": "effect on established mechanical allodynia vs vehicle", "setting": "[1]; prophylactic 1 mg/kg po plus additional dose on day 9, p<0.01 post 2 hrs, p<0.0001 post 4 hrs", "result": "reversed the mechanical allodynia dose dependently"}, {"measurement": "development of mechanical allodynia vs vehicle", "setting": "[1]; prophylactic 3 mg/kg po once daily for 7 days, day 9 at 0 time, p<0.001 vs vehicle", "result": "significantly reduced the development of allodynia"}, {"measurement": "effect on established mechanical allodynia vs vehicle", "setting": "[1]; prophylactic 3 mg/kg po plus additional dose on day 9, p<0.0001 post 2 hrs and post 4 hrs", "result": "reversed the mechanical allodynia dose dependently"}, {"measurement": "modulation of GABAA receptors containing the a3 subunit", "setting": "[2]", "result": "positive allosteric modulator (PAM)"}]}
